Key:
[1] = tested on: NY-99 strain of WNV; experiment: MB + light inactivation of WNV, plaque assay on Vero cells; type: cell-based, West Nile Virus; conditions: MB above 2 μM and light; data not shown; stated as 'held true' for this strain
Protocol: (§1) MB inactivation of West Nile Virus. 1 ml aliquots of WNV at a concentration of 10^7 pfu were mixed with MB (SIGMA INC.) to achieve the desired final concentration of MB in the reaction mixture. Mixtures were incubated for 20 minutes in the dark at room temperature and then subsequently for 10 minutes at 10 cm distance from a 40 watt fluorescent white culture hood light at room temperature. Samples were then diluted to the desired concentration of WNV for plaque assay. Inactivated virus was prepared fresh for each assay and never kept for longer than 2 hours at 4° C. before use. It is contemplated that other RNA viruses as described herein can be similarly treated for vaccine formation.
(§2) Plaque Assays. Five-fold serial dilutions of WNV strains either mock-treated or treated with MB were placed onto Vero cell monolayers cultured in either 6-well plates or T25 culture flasks (GREINER INC.). Virus aliquots were allowed to attach to the cells for 1 hour at normal cell culture conditions. After one hour the virus was aspirated from the cells. The monolayers were washed twice with phosphate-buffer saline (PBS) and overlayed with 2 ml or 5 ml (6-well or T25, respectively) of 1% methylcellulose (SIGMA INC.) medium supplemented with 2% calf serum. Cells were incubated for 5 days. Afterwards the methylcellulose was removed, the monolayers were washed once with PBS and fixed with 100% ice-cold methanol for 5 minutes. The monolayers were subsequently stained with 0.5% Giemsa stain (SIGMA INC.) and plaques counted using a MZ12 dissecting microscope (LEICA INC., Germany).
(§3) As a member of the Flaviviridae family of viruses, WNV utilizes a RNA dependent RNA polymerase for replication. This process is relatively error prone and can lead to the creation of multiple strains. To test the ability of MB to inactivate multiple WNV strains, MB was tested against multiple strains of WNV, including OK02, OK03 and NY-99 (the 1999 prototype virus NY-99 and the more recent Oklahoma isolates from 2002 and 2003). 5×10^3 pfu of OK03 WNV was incubated with 2 μM MB and light. […]

[2] = tested on: OK02 strain of WNV; experiment: as above; type: cell-based, West Nile Virus; conditions: MB above 2 μM and light; FIG. 2 panel A
Protocol: as §1, §2, §3

[3] = tested on: OK03 strain of WNV; experiment: as above; type: cell-based, West Nile Virus; conditions: MB above 2 μM and light; FIG. 2 panel B; stated as 'held true' for this strain
Protocol: as §1, §2, §3

[4] = tested on: WNV; experiment: MB photoinactivation of WNV in tissue culture (strain not stated); type: cell-based, West Nile Virus
Protocol: as §1
as §2, with “Cells were incubated for 5 days. Afterwards the methylcellulose was removed, the monolayers were washed once with PBS and fixed with 100% ice-cold methanol for 5 minutes.” left out

[5] = tested on: WNV strain OK02; experiment: Safety of MB-treated WNV in immunocompetent mice (i.p. injection, survival); type: in vivo, BalbC/j mice; conditions: virus treated with MB+light, doses of 10^3 and 10^4 pfu per animal
[6] = tested on: WNV; experiment: Safety of MB-treated WNV in immunodeficient mice (i.p. injection, survival); type: in vivo, C.B. 17-SCID mice; conditions: 20 μM MB; conclusion from BalbC/j and SCID mice
[7] = cited from earlier work

## CN(C)c1ccc2nc3ccc(N(C)C)cc3[s+]c2c1.[Cl-] [MB, 3,7-Bis(dimethylamino)phenothiazin-5-ium chloride]
[1]
  reduction of viral activity: ≥ 10^3
[2]
  reduction of viral activity: ≥ 10^3
[3]
  reduction of viral activity: ≥ 10^3
[4]; 20 μM MB + light
  reduction of virus titer: 10^7 pfu
[4]; West Nile virus, MB + light, tissue culture, read-out: IC50 of MB+light inactivation of WNV
  IC50: 100 nM
[5]
  WNV-associated morbidity and mortality: completely block-associated morbidity and mortality
[6]
  effect on WNV-associated morbidity and mortality in vivo: can stop WNV-associated morbidity and mortality
[7]; DiSanto and Wagner 1972
  oral absorption: absorbed orally
[7]; oral 100 mg/kg twice daily (Naylor et al., 1986)
  concentration in blood: ~50 µM
[7]; oral (DiSanto and Wagner 1972)
  half-life: about 10 h
[7]; oral, up to 19 months at 100 mg/kg twice daily (Naylor et al., 1986)
  side effects on long-term oral use: no reported side effects

Reference: patent publication US7767210B2, “RNA virus vaccines and methods” (priority 2005, dated 2010)
